We go through 37 molecules from article PMC3320663 (Chemmedchem, 2011).

Read-outs that look alike come from different tables or passages of the source. Some results are limits rather than exact numbers.

The target of this assay is T1, TbTryS (Trypanosoma brucei, UniProt Q586P2).
T1 sequence (Q586P2 1-627): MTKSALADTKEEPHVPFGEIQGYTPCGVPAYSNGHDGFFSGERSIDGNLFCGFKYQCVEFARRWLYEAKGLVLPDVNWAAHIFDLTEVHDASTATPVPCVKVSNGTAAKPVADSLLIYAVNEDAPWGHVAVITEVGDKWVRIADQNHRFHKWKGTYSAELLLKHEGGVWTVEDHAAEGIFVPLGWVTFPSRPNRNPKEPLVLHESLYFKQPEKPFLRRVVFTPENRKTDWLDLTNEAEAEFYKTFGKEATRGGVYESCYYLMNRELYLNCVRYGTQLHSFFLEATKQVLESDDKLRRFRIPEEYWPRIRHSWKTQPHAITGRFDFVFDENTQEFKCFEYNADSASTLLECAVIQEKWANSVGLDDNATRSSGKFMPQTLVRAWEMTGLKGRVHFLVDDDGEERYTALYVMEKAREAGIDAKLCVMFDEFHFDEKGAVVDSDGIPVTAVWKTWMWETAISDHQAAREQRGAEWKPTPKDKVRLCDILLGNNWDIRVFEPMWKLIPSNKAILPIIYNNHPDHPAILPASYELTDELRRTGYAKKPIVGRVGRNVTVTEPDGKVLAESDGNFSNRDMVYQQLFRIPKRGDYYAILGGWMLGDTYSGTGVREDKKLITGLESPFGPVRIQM
The assay is described as follows: Trypanothione synthetase. Particulars: for loss in activity (heterocycle at indazole position 3): indazole series, initial compound 60; for LE (ligand efficiency): calculated as −0.6×ln(IC50)/(heavy atom count). Type of assay: biochemical.

In the case of `CC(C)(C)C(=O)Cn1nnc(-c2cc(F)cc(F)c2)n1` [Compound 19, 1-(5-(3,5-Difluorophenyl)-2H-tetrazol-2-yl)-3,3-dimethylbutan-2-one], for the setting “TbTryS IC50”, the IC50 (commonly the point on the concentration scale where inhibition reaches its midpoint) is 1900 nM.

As for `O=C(Cn1nc(-c2cccc(F)c2)c2ccccc21)NCc1ccc(Cl)cc1` [Compound 86, N-(4-Chlorobenzyl)-2-(3-(3-fluorophenyl)-1H-indazol-1-yl)acetamide], the IC50 (TbTryS IC50) is > 100000 nM.

Consider `CC(C)(C)C(=O)Cn1nc(-c2ccco2)c2ccccc21` [Compound 66, 1-(3-(Furan-2-yl)-1H-indazol-1-yl)-3,3-dimethylbutan-2-one], for which the “loss in activity (heterocycle at indazole position 3)” value was 10 fold. Also, under “TbTryS IC50”, the IC50 was 1900 nM.

On to `Fc1cccc(-c2nn(Cc3cccnc3)c3ccccc23)c1` [Compound 76, 3-(3-Fluorophenyl)-1-(pyridin-3-ylmethyl)-1H-indazole], for which the “LE (ligand efficiency)” value was 0.32. In addition, the IC50 (TbTryS IC50) stood at 4500 nM.

For `CC(C)Cn1cc(-c2nn(CC(=O)C(C)(C)C)c3ccccc23)cn1` [Compound 69, 1-(3-(1-Isobutyl-1H-pyrazol-4-yl)-1H-indazol-1-yl)-3,3-dimethylbutan-2-one], the IC50 (TbTryS IC50) was > 100000 nM.

As for `CC(C)(C)S(=O)(=O)Cc1nc(-c2cccc(C(F)(F)F)c2)cs1` [Compound 7, 2-(tert-Butylsulfonylmethyl)-4-(3-trifluoromethylphenyl)thiazole], under “TbTryS IC50”, half-maximal inhibition (IC50) was put at 1100 nM.

`CN(C)C(=O)Cn1nc(-c2cccc(F)c2)c2ccccc21` [Compound 88, 2-(3-(3-Fluorophenyl)-1H-indazol-1-yl)-N,N-dimethylacetamide]: the “LE (ligand efficiency)” value is given as 0.44. This molecule also showed an IC50 (TbTryS IC50) of 110 nM.

As to `CCN(CC)C(=O)Cn1nc(-c2cccc(F)c2)c2ccccc21` [Compound 87, N,N-Diethyl-2-(3-(3-fluorophenyl)-1H-indazol-1-yl)acetamide], the “LE (ligand efficiency)” value is on record as 0.39. Where the note is “TbTryS IC50”, this molecule displayed an IC50 of 200 nM.

In turn, `O=C(Cn1nnc(-c2cc(F)cc(F)c2)n1)c1ccccc1` [Compound 24, 2-(5-(3,5-Difluorophenyl)-2H-tetrazol-2-yl)-1-phenylethanone] showed an IC50 (TbTryS IC50) of 45000 nM.

The molecule `CC(C)(C)C(=O)Cn1nc(-c2cccc3[nH]ccc23)c2ccccc21` [Compound 62, 1-(3-(1H-Indol-4-yl)-1H-indazol-1-yl)-3,3-dimethylbutan-2-one] had an IC50 (TbTryS IC50) of 3700 nM.

Turning to `Fc1cccc(-c2nn(Cc3ccccn3)c3ccccc23)c1` [Compound 75, 3-(3-Fluorophenyl)-1-(pyridin-2-ylmethyl)-1H-indazole], the “LE (ligand efficiency)” value was 0.33. For the same molecule, the IC50 (TbTryS IC50) was found to be 2900 nM.

Regarding “3-(tert-Butylsulfonylmethyl)-1-(3-fluorophenyl)-1H-indazole [Compound 73]”, the “LE (ligand efficiency)” value was 0.41. Moreover, the IC50 (read-out: TbTryS IC50) stood at 80 nM.

Regarding `Cc1nn(-c2ccccc2)nc1CNS(=O)(=O)C(C)(C)C` [Compound 42, 2-Methyl-N-((5-methyl-2-phenyl-2H-1,2,3-triazol-4-yl)methyl)propane-2-sulfonamide], the IC50 (TbTryS IC50) was 37000 nM.

Take `CCN(CC)C(=O)Cn1nc(C(F)(F)F)c2c1CCCC2` [Compound 35, N,N-Diethyl-2-(3-(trifluoromethyl)-4,5,6,7-tetrahydro-1H-indazol-1-yl)acetamide]: the “TbTryS activity in words” value was “retained some inhibitory activity”. For the same molecule, it took 15000 nM to reach half-maximal inhibition (TbTryS IC50) (IC50).

On to `CC(C)(C)C(=O)Cn1nc(-c2ccncc2)c2ccccc21` [Compound 65, 3,3-Dimethyl-1-(3-(pyridin-4-yl)-1H-indazol-1-yl)butan-2-one], for which the IC50 (TbTryS IC50) was 300 nM.

Take `Cn1ccc2c(-c3nn(CC(=O)C(C)(C)C)c4ccccc34)cccc21` [Compound 63, 3,3-Dimethyl-1-(3-(1-methyl-1H-indol-4-yl)-1H-indazol-1-yl)butan-2-one]: the IC50 (TbTryS IC50) is > 100000 nM.

Consider `CN1CCN(CCNC(=O)Cn2nc(-c3cccc(F)c3)c3ccccc32)CC1` [Compound 90, 2-(3-(3-Fluorophenyl)-1H-indazol-1-yl)-N-(2-(4-methylpiperazin-1-yl)ethyl)acetamide], for which the “LE (ligand efficiency)” value was 0.29. 860 nM corresponded to half-maximal inhibition (TbTryS IC50) (IC50).

As for `CC(C)(C)S(=O)(=O)Cc1nc(-c2cccc(F)c2)cs1` [Compound 9, 2-(tert-Butylsulfonylmethyl)-4-(3-fluorophenyl)thiazole], the IC50 (TbTryS IC50) turned out to be 400 nM.

Take `CCC(=O)Cn1nnc(-c2cc(Cl)cc(Cl)c2)n1` [Compound 22, 1-(5-(3,5-Dichlorophenyl)-2H-tetrazol-2-yl)butan-2-one]: under “TbTryS IC50”, half-maximal inhibition (IC50) required 2700 nM.

In turn, `Cc1ccccc1-c1csc(CS(=O)(=O)C(C)(C)C)n1` [Compound 4, 2-((tert-Butylsulfonyl)methyl)-4-(2-methylphenyl)thiazole] showed an IC50 (TbTryS IC50) of 3200 nM.

As to “N-Methyl-(3-(dimethylamino)propyl)-2-(3-(3-fluorophenyl)-1H-indazol-1-yl)acetamide [Compound 85]”, the “LE (ligand efficiency)” value is given as 0.35. In addition, the IC50 (read-out: TbTryS IC50) was determined as 170 nM.

For the molecule `Fc1cccc(-c2nn(Cc3cc(-c4ccccc4)on3)c3ccccc23)c1` [Compound 78, 3-((3-(3-Fluorophenyl)-1H-indazol-1-yl)methyl)-5-phenylisoxazole], where the note is “TbTryS IC50”, the IC50 is > 100000 nM.

With `CC(C)(C)C(=O)Cn1nc(-c2ccsc2)c2ccccc21` [Compound 68, 3,3-Dimethyl-1-(3-(thiophen-3-yl)-1H-indazol-1-yl)butan-2-one], the “LE (ligand efficiency)” value was 0.42. Also, under “TbTryS IC50”, half-maximal inhibition (IC50) was put at 400 nM.

On to `CC(C)(C)C(=O)Cn1nc(-c2cccc(Cl)c2)c2ccccc21` [Compound 70, 1-(3-(3-Chlorophenyl)-1H-indazol-1-yl)-3,3-dimethylbutan-2-one], for which the “LE (ligand efficiency)” value is 0.39. Half-maximal inhibition (TbTryS IC50) (IC50) required 350 nM. This molecule returned an IC50 (TbTryS IC50, values in running text) of 354 nM.

Turning to `CC(C)(C)C(=O)Cn1nc(-c2ccc(Cl)cc2)c2ccccc21` [Compound 61, 1-(3-(4-Chlorophenyl)-1H-indazol-1-yl)-3,3-dimethylbutan-2-one], the IC50 (TbTryS IC50) was > 100000 nM.

In the case of `CC(C)(C)S(=O)(=O)Cc1nn(-c2ccccc2)c2ccccc12` [Compound 72, 3-(tert-Butylsulfonylmethyl)-1-phenyl-1H-indazole], the “LE (ligand efficiency)” value was 0.40. Besides, the midpoint of inhibition (TbTryS IC50), the IC50, lay at 220 nM.

For `Cc1nc(Cn2nc(-c3cccc(F)c3)c3ccccc32)c(C)o1` [Compound 77, 4-((3-(3-Fluorophenyl)-1H-indazol-1-yl)methyl)-2,5-dimethyloxazole], the “LE (ligand efficiency)” value is recorded as 0.26. Further, it took 28000 nM to reach half-maximal inhibition (TbTryS IC50) (IC50).

As for `CC(C)(C)C(=O)Cn1nnc(-c2ccccc2)n1` [Compound 14, 3,3-Dimethyl-1-(5-phenyl-2H-tetrazol-2-yl)butan-2-one], the “LE (ligand efficiency)” value is listed as 0.39. Further, the IC50 (TbTryS IC50) was determined as 8800 nM.

With `COc1cccc(-c2csc(CS(=O)(=O)C(C)(C)C)n2)c1` [Compound 6, 2-((tert-Butylsulfonyl)methyl)-4-(3-methoxyphenyl)thiazole], the “loss in potency relative to unsubstituted compound 3” value was found to be 10 fold. Besides, the IC50 (TbTryS IC50) came out at 12000 nM.

Where the note is “TbTryS IC50”, `CC(C)(C)S(=O)(=O)Cc1nc(-c2ccccc2F)cs1` [Compound 5, 2-((tert-Butylsulfonyl)methyl)-4-(2-fluorophenyl)thiazole] came in with an IC50 of 1100 nM.

As for `CN(C)CCNC(=O)Cn1nc(-c2cccc(F)c2)c2ccccc21` [Compound 83, N-(2-(Dimethylamino)ethyl)-2-(3-(3-fluorophenyl)-1H-indazol-1-yl)acetamide], the “LE (ligand efficiency)” value is 0.38. Besides, under “TbTryS IC50”, the IC50 was 145 nM.

`CC(C)(C)C(=O)Cn1nnc(-c2cccc(F)c2)n1` [Compound 17, 1-(5-(3-Fluorophenyl)-2H-tetrazol-2-yl)-3,3-dimethylbutan-2-one] had an IC50 (TbTryS IC50) of 1500 nM.

For the molecule `CC(C)(C)S(=O)(=O)Cc1nc(-c2ccccc2)cs1` [Compound 3, 2-((tert-Butylsulfonyl)methyl)-4-(phenyl)thiazole], the midpoint of inhibition (TbTryS IC50), the IC50, lay at 1200 nM.

Under “TbTryS IC50”, `CC(=O)Cn1nnc(-c2cc(Cl)cc(Cl)c2)n1` [Compound 21, 1-(5-(3,5-Dichlorophenyl)-2H-tetrazol-2-yl)propan-2-one] showed an IC50 of 6500 nM.

With `CC(C)(C)C(=O)Cn1nc(-c2cccnc2)c2ccccc21` [Compound 67, 1-(3-(3-Pyridyl)-1H-indazol-1-yl)-3,3-dimethylbutan-2-one], the “LE (ligand efficiency)” value is 0.35 and the “loss in activity (heterocycle at indazole position 3)” value stood at 10 fold. The molecule also yielded an IC50 (TbTryS IC50) of 3000 nM.

Consider `CN1CCN(CCCNC(=O)Cn2nc(-c3cccc(F)c3)c3ccccc32)CC1` [Compound 80, 2-(3-(3-Fluorophenyl)-1H-indazol-1-yl)-N-(3-(4-methylpiperazin-1-yl)propyl)acetamide], for which the “LE (ligand efficiency)” value is reported as 0.28. Moreover, half-maximal inhibition (TbTryS IC50) (IC50) was put at 830 nM.

As to `CC(C)(C)OC(=O)N1CCN(CCNC(=O)Cn2nc(-c3cccc(F)c3)c3ccccc32)CC1` [Compound 82, tert-Butyl-4-(2-(2-(3-(3-fluorophenyl)-1H-indazol-1-yl)acetamido)ethyl)piperazine-1-carboxylate], the “LE (ligand efficiency)” value is on record as 0.22. Moreover, the IC50 (TbTryS IC50) is 2900 nM.
